Patent US10478157B2, “Methods for drug delivery” (Presage Biosciences, Inc., priority 2011, dated 2019)

Test system: mouse xenograft of Human Lymphoma Ramos cell line
Assay: Vincristine delivered through a microdialysis probe into a solid tumor; Cleaved Caspase 3 / DAPI staining
Type: in vivo
Details: intratumoral delivery by microdialysis probe; Cleaved Caspase 3 Fluorophore 555 for cell death, DAPI nuclear stain; FIG. 13
Text: FIGS. 13a and 13b show drug delivered through microdialysis probe induces spatially restricted drug specific tumor cell death embodying principles of the present invention.
Little or no evidence of tissue disruption due to insertion was observed. The membrane maintained its integrity through insertion and tissue processing, including microtome sectioning. The solid tumor is a mouse xenograft of Human Lymphoma Ramos cell line. The biomarkers are DAPI for nuclear stain and Cleaved Caspase 3 Fluorophore 555 for cell death in response to Vincristine as delivery agent.

CC[C@]1(O)C[C@H]2CN(CCc3c([nH]c4ccccc34)[C@@](C(=O)OC)(c3cc4c(cc3OC)N(C=O)[C@H]3[C@@](O)(C(=O)OC)[C@H](OC(C)=O)[C@]5(CC)C=CCN6CC[C@]43[C@@H]65)C2)C1 [Vincristine]
triggered cellular response (Cleaved Caspase 3 biomarker for cell death) around the delivery axis: clear manifestation of triggered cellular response
